ChEMBL document CHEMBL1157390, “Aplysinoplides A-C, cytotoxic sesterterpenes from the marine sponge Aplysinopsis digitata” (J Nat Prod, 2008)
≈ marks a conversion by molar mass, not a printed value. Calls of active or inactive are those of the source. The rule behind the calls is not given here.

Columns and labels:
[1] = target: Phospholipase A2 (Bos taurus) (UniProt P00593); assay: Inhibition of bovine pancreas PLA2 at 100 uM by pH-stat assay
P388 = assay: Cytotoxicity against mouse P388 cells after 96 hrs by MTT assay; format: functional, cell-based; details: P388, 96 h

Chain of Phospholipase A2 (Bos taurus) (P00593 whole entry): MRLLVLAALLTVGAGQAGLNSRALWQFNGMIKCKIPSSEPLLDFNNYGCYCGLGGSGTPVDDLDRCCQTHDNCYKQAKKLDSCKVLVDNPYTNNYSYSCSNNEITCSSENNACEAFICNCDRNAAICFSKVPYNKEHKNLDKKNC

Row | Structure (SMILES) | Activity [1] | IC50 (P388)
1 | CC1=C(CC/C(C)=C/CCC2=CC[C@H](C3=CC(=O)O[C@H]3O)O[C@H]2O)C(C)(C)CCC1 | Active | 
2 | CC1=C(CC/C(C)=C/CC/C(=C\CC(O)C2=CC(=O)OC2O)CO)C(C)(C)CCC1 (stereo unspecified) [APLYSINOPLIDE B] | inactive | 0.45 µg/mL (≈ 1.08 µM)
3 | C/C(=C\CC/C(=C/CC1OC(=O)C=C1CO)CO)CCC1C(C)(C)CCCC1(C)O (stereo unspecified) [APLYSINOPLIDE C] |  | 11 µg/mL (≈ 26.2 µM)
4 | CC1=C(CC/C(C)=C/CC/C(=C\C=C\C2=CC(=O)OC2O)CO)C(C)(C)CCC1 (stereo unspecified) [APLYSINOPLIDE A] | inactive | 0.45 µg/mL (≈ 1.12 µM)
